Test [1] addresses T1, Glycogen phosphorylase, muscle form (Oryctolagus cuniculus, UniProt P00489).
T1 sequence (P00489 whole entry): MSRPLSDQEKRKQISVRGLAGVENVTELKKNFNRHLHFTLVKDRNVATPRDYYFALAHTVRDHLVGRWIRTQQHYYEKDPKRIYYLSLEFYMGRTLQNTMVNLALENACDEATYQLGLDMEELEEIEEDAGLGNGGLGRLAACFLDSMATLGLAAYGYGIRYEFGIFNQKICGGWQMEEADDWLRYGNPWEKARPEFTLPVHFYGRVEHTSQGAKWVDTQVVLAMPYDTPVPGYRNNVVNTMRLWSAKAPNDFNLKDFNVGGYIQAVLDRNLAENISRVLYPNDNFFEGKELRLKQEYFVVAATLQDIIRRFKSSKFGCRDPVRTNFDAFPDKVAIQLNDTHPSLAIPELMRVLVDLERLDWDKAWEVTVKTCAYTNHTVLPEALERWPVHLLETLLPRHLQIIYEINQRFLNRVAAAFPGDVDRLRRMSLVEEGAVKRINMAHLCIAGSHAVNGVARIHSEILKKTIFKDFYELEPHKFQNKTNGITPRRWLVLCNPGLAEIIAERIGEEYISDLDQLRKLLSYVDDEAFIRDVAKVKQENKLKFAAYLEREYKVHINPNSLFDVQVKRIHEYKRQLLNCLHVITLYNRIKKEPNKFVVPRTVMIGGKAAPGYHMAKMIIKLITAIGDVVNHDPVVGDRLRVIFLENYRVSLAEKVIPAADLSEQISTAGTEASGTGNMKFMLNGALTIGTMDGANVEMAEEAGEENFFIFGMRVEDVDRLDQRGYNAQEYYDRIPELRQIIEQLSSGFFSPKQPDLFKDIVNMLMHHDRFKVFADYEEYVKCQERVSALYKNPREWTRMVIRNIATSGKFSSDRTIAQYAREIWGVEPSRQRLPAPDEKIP
The test is described as follows: Inhibition of rabbit muscle glycogen phosphorylase b.

Test [2] concerns the target T1, Glycogen phosphorylase, muscle form. The test is described as follows: Inhibition of rabbit muscle glycogen phosphorylase b by cheng-prusoff equation.

Take `O=C(N[C@@H]1O[C@H](CO)[C@@H](O)[C@H](O)[C@H]1O)c1cc(Br)c2c(c1)OCCO2`: in test [1], the IC50 was 670 µM. The molecule also yielded a Ki in test [2] of 268 µM.
In the same order, the values of `COc1cc(C(=O)N[C@@H]2O[C@H](CO)[C@@H](O)[C@H](O)[C@H]2O)cc2c1OCCO2` are 580 µM and 232 µM.
In the same order, the values of `O=C(N[C@@H]1O[C@H](CO)[C@@H](O)[C@H](O)[C@H]1O)[C@@H]1COc2ccccc2O1` are 300 µM and 120 µM.
In the same order, the values of `O=C(N[C@@H]1O[C@H](CO)[C@@H](O)[C@H](O)[C@H]1O)[C@H]1COc2ccccc2O1` are 320 µM and 128 µM.
For `O=C(N[C@@H]1O[C@H](CO)[C@@H](O)[C@H](O)[C@H]1O)C1=COc2ccccc2O1`, in test [1], half-maximal inhibition (IC50) required 125 µM. The molecule also came in with an inhibitory constant (Ki) in test [2] of 85 µM.
Take `O=C(N[C@@H]1O[C@H](CO)[C@@H](O)[C@H](O)[C@H]1O)c1ccc2c(c1)OCCO2`: the IC50 in test [1] is 630 µM. The Ki in test [2] stood at 252 µM.

A word on the IC50: it is the concentration needed to halve the response being measured. A lower IC50 goes with inhibition by little substance. In general, Ki refers to a measure of affinity in units of concentration, obtained from inhibition or displacement. Low readings indicate tighter binding, high ones weaker binding.

The values are drawn from ChEMBL document CHEMBL1152573, “Synthesis and glycogen phosphorylase inhibitory activity of N-(beta-D-glucopyranosyl)amides possessing 1,4-benzodioxane moiety” (Bioorg Med Chem, 2009).
